This note sets out measurements from patent publication US8741843B2, “Compositions and methods for inducing angiogenesis” (priority 2006, dated 2014).

Entries after “also recorded” stand apart in the source; their conditions may differ.

One experiment relates to mouse ischemic hind limb. Put plainly: Histological assessment of angiogenesis in ischemic hind limb (von Willebrand Factor VIII staining). Format: in vivo. As to the method: FIG. 8 is a graph depicting histological assessment of angiogenesis in the ischemic hind limb treated with ADOPep1. Mice were subjected to hind limb ligation and ADOPep administration as described in FIG. 7 and at the noted days (0, 7, 14 and 21 days) post hind limb ligation the mice were sacrificed and legs were embedded in paraffin. Sections were stained with anti von Willebrand factor and the number of Factor VIII positive vessels was determined using the Image Pro Plus software. Shown are the average blood vessel densities (of 10 individual microscopical fields per sample) expressed as number of capillaries per millimeter squared in histological sections of mouse hind limb ischemia treated with ADOPep1.
FIGS. 9a-b are microscopical images of histological sections subjected to von Willebrand Factor immuno-staining of mouse hind limb ischemia 21 days following injection of ADOPep1 (FIG. 9a) or PBS (FIG. 9b). […]
Limbs from mice treated with ADOPep 1, 3 or control mice injected with PBS were sacrificed at 7, 14 and 21 days post operation. […] Vessel densities were expressed as capillaries per millimeter squared. To obtain the average vessel number per cross-section area, a minimum of ten individual fields were sampled, and Image Pro-Plus (MediaCybernetics, Silver spring, MD, USA) was used to measure the counted area. The number of Factor VIII positive vessels was counted.

A further experiment deals with endothelial cells. The experiment in a line: Inhibition of binding of biotinylated ADOPep1 to endothelial cells by motif peptides. The arrangement: species or system human. To be noted: normoxia, peptides 0.01, 0.1 or 1 ng/ml, ADOPep1^Biot 2 μg/ml. The procedure:
FIG. 23 is a graph depicting the inhibition of binding of ADOPep1^Biot (2 μg/ml) to endothelial cells by specific peptides corresponding to conserved motifs from the ADOPeps. Endothelial cells were incubated for 2 hours under normoxia conditions in the presence of increasing concentrations (0.01, 0.1 or 1 ng/ml) of peptides having the amino acid sequences corresponding to Motif A (HWRRP; SEQ ID NO:7), Motif B (HWRRA; SEQ ID NO:8), Motif C (AHLLP; SEQ ID NO:6) or non-biotinylated ADOPep1 (SEQ ID NO:2) and then were incubated for 1 hour with biotinylated ADOPep1 (2 μg/ml) and the binding of biotinylated ADOPep1 to endothelial cells was determined using HRP-streptavidin.

For the substance “HWRRAHLLPRLP [ADOPep1, ADAM15 derived peptide, amino acids 286-297 of the metalloprotease domain]”, the “blood vessel density (number of blood vessels per area)” value in the experiment on mouse ischemic hind limb (0.1 μg per mouse, days 7, 14, 21, vs PBS) is “significant increase (p<0.05) in the number of blood vessels; also recorded: significant increase in the blood vessel density”. Moreover, the “von Willebrand Factor staining of small vessels” value in the experiment with mouse ischemic hind limb (21 days following injection, vs PBS) is on record as “higher von Willebrand Factor Positive stained small vessels; also recorded: significantly higher von Willebrand Factor staining of small vessels”.
Regarding “HWRRP [Motif A, 5 amino acid motif peptide]”, in the experiment with endothelial cells, the “inhibition of the binding of ADOPep1^Biot to endothelial cells” value is on record as “significant inhibition”.
